In PubChem BioAssay (NCI):
Where “and” joins values, the source holds several entries; their conditions need not be identical. Identical values can stand only once.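 Five compound concentrations were applied to cells in 96-well plates for 48 hours; endpoints were derived by simple linear interpolation of the resulting dose-response curve. GI50 = concentration required for 50% inhibition of growth. TGI: concentration producing complete growth inhibition.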

How the values were obtained:
Test in all cases: NCI tumour cell line growth inhibition, 48 h
[1] = tested on: MDA-MB-435
[2] = tested on: M14 melanoma
[3] = tested on: HL-60(TB) leukemia
[4] = tested on: OVCAR-4 ovarian
[5] = tested on: HOP-92 NSCLC
[6] = tested on: SK-MEL-5 melanoma
[7] = tested on: MOLT-4 leukemia
[8] = tested on: 786-0 renal
[9] = tested on: SF-295 CNS

Row | SMILES | TGI [1] [µM] | TGI [2] | TGI [3] [µM] | TGI [4] [µM] | TGI [5] | TGI [6] | TGI [7] [µM] | TGI [8] | TGI [9] | GI50 [1] | GI50 [2] [µM] | GI50 [3] [µM] | GI50 [5] | GI50 [9] [µM]
1 | OC(CC(c1ccccc1)c1ccc(Cl)cc1)c1ccc(Cl)cc1 (configuration not stated) | 91.5 | > 100 µM | 64.6 | > 100 | 64.2 µM | 88.1 µM | > 100 | > 100 µM | 92 µM | – | – | – | – | –
2 | c1ccc2c(c1)CC1c3[nH]c4ccccc4c3CCN21 (configuration not stated) | > 10 | > 10 µM | > 10 | > 10 | > 10 µM | > 10 µM | > 10 | > 10 µM | > 10 µM | – | – | – | – | –
3 | COc1ccccc1C(=O)c1c(N2CCCCC2)c(=O)c1=O | > 100 | > 100 µM | > 100 | > 100 | > 100 µM | > 100 µM | > 100 | > 100 µM | > 100 µM | – | – | – | – | –
4 | CC1=NNC(N)=N/C1=C/C(Sc1ccc(Cl)cc1)c1cccs1 (configuration not stated) | 55.3 | 28 µM | – | 76.6 | > 100 µM | 25.6 µM | > 100 | 82.4 µM | 31.3 µM | – | – | – | – | –
5 | O=C1/C(=C/c2cccc(Oc3ccccc3)c2)N=C(c2ccccc2)N1c1nc2ccc(Sc3ccccc3)cc2[nH]1 | 33.1 | 74.8 µM | 49.9 | > 100 | > 100 µM | 75.3 µM | > 100 | > 100 µM | 53.7 µM | – | – | – | – | –
6 | CC(=O)N[C@@H](Cc1ccc(O)cn1)C(=O)NCc1ccc2c(c1)OCO2 | > 100 | > 100 µM | > 100 | > 100 | > 100 µM | > 100 µM | > 100 | > 100 µM | > 100 µM | – | – | – | – | –
7 | Cc1ncc([N+](=O)[O-])n1CCN=[N+]=[N-] | > 100 | > 100 µM | – | > 100 | > 100 µM | > 100 µM | – | > 100 µM | > 100 µM | – | – | – | – | –
8 | Oc1ccc(-c2c3c(nc4c2CCc2ccc(Br)cc2-4)-c2cc(Br)ccc2CC3)cc1 | 45 | 55.1 µM | – | 48 | 31.1 µM | 35.7 µM | – | 37.4 µM | 31.7 µM | – | – | – | – | –
9 | O=C1NC(=O)/C(=C\c2ccncc2)N1 | > 100 | > 100 µM | – | > 100 | > 100 µM | > 100 µM | > 100 | > 100 µM | > 100 µM | – | – | – | – | –
10 | COc1ccc(C2CC(c3c(C)nn(-c4ccccc4)c3-c3ccc(C)cc3O)=NN2c2ccccc2)cc1 (configuration not stated) | > 100 | > 100 µM | > 100 | > 100 | > 100 µM | > 100 µM | > 100 | > 100 µM | > 100 µM | – | – | – | – | –
11 | Cc1cc(S(=O)(=O)Nc2n[nH]c(Nc3ccccc3)n2)c(S)cc1Cl | > 10 | > 10 µM | > 10 | > 10 | – | > 10 µM | > 10 | > 10 µM | > 10 µM | – | – | – | – | –
12 | COc1cc(C2C(Cl)C(=O)N2c2ccc(Br)cc2)cc(I)c1O (configuration not stated) | > 100 | > 100 µM | > 100 | > 100 | – | > 100 µM | > 100 | > 100 µM | > 100 µM | – | – | – | – | –
13 | O=C1c2cc([N+](=O)[O-])ccc2NC2C(O)c3ccccc3N12 (configuration not stated) | > 100 | > 100 µM | – | 55.8 | 53.6 µM | > 100 µM | 49.1 | 64.4 µM | > 100 µM | – | – | – | – | –
14 | CCCCn1cc(C(=O)O)c(=O)c2c3sccc3ccc21 | > 100 | > 100 µM | > 100 | > 100 | > 100 µM | > 100 µM | > 100 | > 100 µM | > 100 µM | – | – | – | – | –
15 | c1ccc2c3c(ccc2c1)CSCc1ccc2ccccc2c1-3 | > 100 | > 100 µM | – | > 100 | > 100 µM | > 100 µM | > 100 | > 100 µM | > 100 µM | – | – | – | – | –
16 | COc1cc2c3c(n(CCCNCCO)c(=O)c2cc1OC)-c1cc2c(cc1C3=O)OCO2 | – | 0.573 µM and 0.679 µM | – | – | 2.77 µM and 3.56 µM | 1.51 µM and 1.56 µM | 0.0279 | 0.118 µM and 0.0216 µM | 1.29 µM and 4.27 µM | 0.528 µM and 1.34 µM | 0.0575 | < 0.0277 | 0.831 µM and 0.102 µM | < 0.0188
17 | O=C1CSC2(CC(/C=C/C=C/c3ccccc3)=NN2c2cccc(S(=O)(=O)O)c2)N1c1nc2ccccc2s1 (configuration not stated) | 55.6 | > 100 µM | > 100 | > 100 | > 100 µM | > 100 µM | 67.1 | > 100 µM | – | – | – | – | – | –
18 | CN(C)CCCn1c2ccccc2c2cnccc21 | > 100 | 33 µM | 99.8 | > 100 | > 100 µM | 42.5 µM | 83.9 | > 100 µM | > 100 µM | – | – | – | – | –
19 | Cc1ccc2ccccc2c1CC1S(=O)(=O)OCCOS1(=O)=O | 22 | 28.7 µM | 5.38 | 23.6 | – | 26.4 µM | 27.5 | 30.3 µM | 27.4 µM | – | – | – | – | –
20 | CCCCCCCCCCCCC(=O)NCC(=O)NC(Cc1ccccc1)C(=O)Oc1ccc([N+](=O)[O-])cc1 (configuration not stated) | > 100 | > 100 µM | > 100 | – | – | > 100 µM | – | > 100 µM | > 100 µM | – | – | – | – | –
21 | C/C(=N\N=C(N)N)c1c(C(=O)OCCCCCCOC(=O)c2nc3sccn3c2/C(C)=N/N=C(N)N)nc2sccn12 | > 100 | > 100 µM | > 100 | > 100 | > 100 µM | > 100 µM | > 100 | > 100 µM | – | – | – | – | – | –
22 | CC(=O)Oc1ccc2cc(Oc3ccc(Cl)cc3)c(=O)oc2c1 | – | > 100 µM | > 100 | > 100 | > 100 µM | 41.9 µM | – | > 100 µM | 99 µM | – | – | – | – | –
23 | COc1ccc(CNc2nc(NCc3ccc(OC)cc3)nc(NC3CCCCC3)n2)cc1 | 1.94 | – | > 100 | > 100 | > 100 µM | > 100 µM | > 100 | > 100 µM | 4.14 µM | – | – | – | – | –
24 | O=C1CCC2(CC1)Cc1ccccc1C2O (configuration not stated) | – | > 100 µM | > 100 | > 100 | – | > 100 µM | > 100 | > 100 µM | > 100 µM | – | – | – | – | –
